# Experimental data as given in patent publication US4539202A, “Derivatives of clavulanic acid, a process for their preparation and their use” (Beecham Group p.l.c., priority 1983, dated 1985).
# Test system: K aerogenes E70
# Test: Synergistic activity with amoxycillin, standard MIC test
# Format: cell-based, Klebsiella aerogenes
# Settings: amoxycillin alone
# Excerpt: (§1) Synergistic Activity with Amoxycillin
# (§2) Using conventional methods the following results were obtained in a standard MIC test: […]
row,SMILES,MIC amoxycillin [µg/mL]
1,CC1(C)S[C@@H]2[C@H](NC(=O)[C@H](N)c3ccc(O)cc3)C(=O)N2[C@H]1C(=O)O [Amoxycillin],500

# Test system: St aureus Russell
# Test: Antibacterial activity, standard MIC test
# Format: cell-based
# Settings: Staphylococcus aureus, compound alone
# Excerpt: as §2
row,MIC [µg/mL],SMILES
1,8,"O=C(O)CCCCCCCCCCNC/C=C1\O[C@@H]2CC(=O)N2[C@H]1C(=O)O [11(b), 9-N-(10'-Carboxydecyl)aminodeoxyclavulanic acid]"
2,31,"O=C(O)CCCCCNC/C=C1\O[C@@H]2CC(=O)N2[C@H]1C(=O)O [9(b), 9-N-(5'-Carboxypentyl)aminodeoxyclavulanic acid]"
3,62.5,"O=C(O)CCCNC/C=C1\O[C@@H]2CC(=O)N2[C@H]1C(=O)O [10(b), 9-N-(3'-Carboxypropyl)aminodeoxyclavulanic acid]"
4,31,"O=C(O)CCCCNC/C=C1\O[C@@H]2CC(=O)N2[C@H]1C(=O)O [3(c), 9-N-(4'-Carboxybutyl)aminodeoxyclavulanic acid]"

# Second part, the compound before the results:
row,SMILES,MIC [µg/mL]
1,"O=C(O)CCNC/C=C1\O[C@@H]2CC(=O)N2[C@H]1C(=O)O [1(b), 9-N-(2'-Carboxyethyl)aminodeoxyclavulanic acid]",31
2,"COC(=O)CCNC/C=C1\O[C@@H]2CC(=O)N2[C@H]1C(=O)O [6(b), 9-N-(2'-Methoxycarbonylethyl)aminodeoxyclavulanic acid]",8
3,N[C@@H](CCCCNC/C=C1\O[C@@H]2CC(=O)N2[C@H]1C(=O)O)C(=O)O [14(d)],31
4,"O=C(O)[C@H]1/C(=C/CNC[C@H]2CC[C@H](C(=O)O)CC2)O[C@@H]2CC(=O)N21 [12(d), 9-N-(trans-4'-Carboxycyclohexylmethyl)aminodeoxyclavulanic acid]",16
5,"O=C(O)c1ccc(CNC/C=C2\O[C@@H]3CC(=O)N3[C@H]2C(=O)O)cc1 [4(c), 9-N-(4'-Carboxybenzyl)aminodeoxyclavulanic acid]",4

# Test system: K aerogenes E70
# Test: Antibacterial activity, standard MIC test
# Format: cell-based
# Settings: Klebsiella aerogenes, compound alone
# Excerpt: as §2
row,MIC [µg/mL],SMILES
1,> 500,"O=C(O)CCCCCCCCCCNC/C=C1\O[C@@H]2CC(=O)N2[C@H]1C(=O)O [11(b), 9-N-(10'-Carboxydecyl)aminodeoxyclavulanic acid]"
2,250,"O=C(O)CCCCCNC/C=C1\O[C@@H]2CC(=O)N2[C@H]1C(=O)O [9(b), 9-N-(5'-Carboxypentyl)aminodeoxyclavulanic acid]"
3,250,"O=C(O)CCCNC/C=C1\O[C@@H]2CC(=O)N2[C@H]1C(=O)O [10(b), 9-N-(3'-Carboxypropyl)aminodeoxyclavulanic acid]"
4,250,"O=C(O)CCCCNC/C=C1\O[C@@H]2CC(=O)N2[C@H]1C(=O)O [3(c), 9-N-(4'-Carboxybutyl)aminodeoxyclavulanic acid]"

# Further lines, the compound ahead of its results:
row,SMILES,MIC [µg/mL]
1,"O=C(O)CCNC/C=C1\O[C@@H]2CC(=O)N2[C@H]1C(=O)O [1(b), 9-N-(2'-Carboxyethyl)aminodeoxyclavulanic acid]",> 500
2,"COC(=O)CCNC/C=C1\O[C@@H]2CC(=O)N2[C@H]1C(=O)O [6(b), 9-N-(2'-Methoxycarbonylethyl)aminodeoxyclavulanic acid]",250
3,N[C@@H](CCCCNC/C=C1\O[C@@H]2CC(=O)N2[C@H]1C(=O)O)C(=O)O [14(d)],> 500
4,"O=C(O)[C@H]1/C(=C/CNC[C@H]2CC[C@H](C(=O)O)CC2)O[C@@H]2CC(=O)N21 [12(d), 9-N-(trans-4'-Carboxycyclohexylmethyl)aminodeoxyclavulanic acid]",250
5,"O=C(O)c1ccc(CNC/C=C2\O[C@@H]3CC(=O)N3[C@H]2C(=O)O)cc1 [4(c), 9-N-(4'-Carboxybenzyl)aminodeoxyclavulanic acid]",250

# Test system: E coli JT39
# Test: Antibacterial activity, standard MIC test
# Format: cell-based, Escherichia coli
# Settings: Escherichia coli, compound alone, read-out: MIC
# Excerpt: as §2
row,MIC [µg/mL],SMILES
1,31,"O=C(O)CCCCCNC/C=C1\O[C@@H]2CC(=O)N2[C@H]1C(=O)O [9(b), 9-N-(5'-Carboxypentyl)aminodeoxyclavulanic acid]"
2,31,"O=C(O)CCCNC/C=C1\O[C@@H]2CC(=O)N2[C@H]1C(=O)O [10(b), 9-N-(3'-Carboxypropyl)aminodeoxyclavulanic acid]"
3,62.5,"O=C(O)CCCCNC/C=C1\O[C@@H]2CC(=O)N2[C@H]1C(=O)O [3(c), 9-N-(4'-Carboxybutyl)aminodeoxyclavulanic acid]"

# Continued, compound first:
row,SMILES,MIC [µg/mL]
1,"O=C(O)CCNC/C=C1\O[C@@H]2CC(=O)N2[C@H]1C(=O)O [1(b), 9-N-(2'-Carboxyethyl)aminodeoxyclavulanic acid]",15
2,"COC(=O)CCNC/C=C1\O[C@@H]2CC(=O)N2[C@H]1C(=O)O [6(b), 9-N-(2'-Methoxycarbonylethyl)aminodeoxyclavulanic acid]",31
3,"O=C(O)[C@H]1/C(=C/CNC[C@H]2CC[C@H](C(=O)O)CC2)O[C@@H]2CC(=O)N21 [12(d), 9-N-(trans-4'-Carboxycyclohexylmethyl)aminodeoxyclavulanic acid]",31
4,"O=C(O)c1ccc(CNC/C=C2\O[C@@H]3CC(=O)N3[C@H]2C(=O)O)cc1 [4(c), 9-N-(4'-Carboxybenzyl)aminodeoxyclavulanic acid]",31

# Same assay, conditions: compound alone
row,SMILES,MIC [µg/mL]
1,N[C@@H](CCCCNC/C=C1\O[C@@H]2CC(=O)N2[C@H]1C(=O)O)C(=O)O [14(d)],125

# Test system: E coli JT39
# Test: Synergistic activity with amoxycillin, standard MIC test
# Format: cell-based, Escherichia coli
# Settings: amoxycillin alone
# Excerpt: as §1, §2
row,SMILES,MIC amoxycillin [µg/mL]
1,CC1(C)S[C@@H]2[C@H](NC(=O)[C@H](N)c3ccc(O)cc3)C(=O)N2[C@H]1C(=O)O [Amoxycillin],2000

# Test system: St aureus Russell
# Test: as above
# Format: cell-based, Staphylococcus aureus
# Settings: amoxycillin alone
# Excerpt: as §1, §2
row,SMILES,MIC amoxycillin [µg/mL]
1,CC1(C)S[C@@H]2[C@H](NC(=O)[C@H](N)c3ccc(O)cc3)C(=O)N2[C@H]1C(=O)O [Amoxycillin],500
